# Laboratory results reported in patent US20180305332A1, “Bispiperidinyl Derivatives as Liver X Receptor Beta Agonists, Compositions, and Their Use” (Merck Sharp & Dohme Corp., priority 2015, published 2018).
# pEC50: −log10 of the molar value.
# How the values were obtained:
# [1] = target: T1, GST tagged LXRalpha LBD (ligand binding domain) (Homo sapiens, UniProt Q13133); experiment: LanthaScreen TR-FRET Liver X Receptor Coactivator Assay, LXR alpha-LBD; type: biochemical; settings: relative to reference T0901317; for pEC50: read-out: LXR alpha IP; for Emax: activity at max dose (efficacy), read-out: LXR alpha act @ max dose (%)
# T1 construct: purchased Invitrogen pv4655
# T1 sequence (Q13133 209-447 limits assumed): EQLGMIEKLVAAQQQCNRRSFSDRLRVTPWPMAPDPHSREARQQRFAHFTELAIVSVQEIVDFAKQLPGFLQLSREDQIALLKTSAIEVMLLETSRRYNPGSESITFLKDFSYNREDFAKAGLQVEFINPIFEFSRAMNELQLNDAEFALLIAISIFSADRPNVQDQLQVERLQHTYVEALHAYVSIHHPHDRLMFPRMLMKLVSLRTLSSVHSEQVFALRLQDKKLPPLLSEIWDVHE
# Method in brief: (§1)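 Compound-induced coactivator recruitment measured by TR-FRET between a terbium anti-GST antibody bound to the GST-LBD (LXRα or LXRβ, human) and a fluorescein coactivator peptide, after incubation at room temperature. Potency (inflection point) and efficacy (Emax) referenced to T0901317.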
# [2] = target: T2, GST tagged LXRbeta LBD (ligand binding domain) (Homo sapiens, UniProt P55055); experiment: LanthaScreen TR-FRET Liver X Receptor Coactivator Assay, LXR beta-LBD; type: biochemical; settings: relative to reference T0901317; for pEC50: Inflection Point (potency), co-activator recruitment, read-out: LXR beta IP; for Emax: activity at max dose (efficacy), read-out: LXR beta act @ max dose (%)
# T2 construct: purchased Invitrogen pv4658.pps
# T2 sequence (P55055 222-460 limits assumed): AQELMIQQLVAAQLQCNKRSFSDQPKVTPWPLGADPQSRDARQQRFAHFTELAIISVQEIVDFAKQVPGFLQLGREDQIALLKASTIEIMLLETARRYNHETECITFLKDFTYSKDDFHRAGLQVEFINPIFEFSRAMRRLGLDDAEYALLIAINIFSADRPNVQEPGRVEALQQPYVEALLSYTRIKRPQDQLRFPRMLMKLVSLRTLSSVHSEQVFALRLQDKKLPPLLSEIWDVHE
# Method in brief: as §1
# [3] = Inflection Point (potency), co-activator recruitment
"pEC50 [1, 3]",Emax [1],pEC50 [2],Emax [2],"LXR alpha IP (nM) [1, 3]",Compound
6.13,24%,7.00,88%,,"CN(C)C(=O)c1c(Cl)cc(N2CCC(C3CCN(C(=O)c4c(F)cccc4F)CC3)CC2)cc1Cl [Example A-32, 2,6-dichloro-4-{1′-[(2,6-difluorophenyl)carbonyl]-4,4′-bipiperidin-1-yl}-N,N-dimethylbenzamide]"
6.05,24%,7.15,95%,,"CC(C)N(C)C(=O)c1ccc(N2CCC(C3CCN(C(=O)[C@](O)(c4ccccc4)C(F)(F)F)CC3)CC2)cc1Cl [Example E-33, 2-chloro-N-methyl-N-(1-methylethyl)-4-{1′-[(2R)-3,3,3-trifluoro-2-hydroxy-2-phenylpropanoyl]-4,4′-bipiperidin-1-yl}benzamide]"
5.50,33%,6.55,88%,,"O=C(c1ccc(N2CCC(C3CCN(C(=O)[C@@](O)(c4ccccc4)C(F)(F)F)CC3)CC2)cc1Cl)N1CCCC1 (single isomer, unassigned) [Example E-19]"
5.49,29%,6.59,108%,,"CN(C)C(=O)c1ccc(N2CCC(C3CCN(C(=O)[C@@](C)(O)c4ccccc4)CC3)CC2)cc1Cl [Example A-53, 2-chloro-4-{1′-[(2S)-2-hydroxy-2-phenylpropanoyl]-4,4′-bipiperidin-1-yl}-N,N-dimethylbenzamide]"
6.08,15%,6.39,75%,,"CN(C)C(=O)c1ccc(N2CCC(C3CCN(C(=O)C(O)(c4ccccc4)C(F)(F)C(F)(F)C(F)(F)F)CC3)CC2)cc1Cl (centres unmarked) [Example A-54, 2-chloro-4-[1′-(3,3,4,4,5,5,5-heptafluoro-2-hydroxy-2-phenylpentanoyl)-4,4′-bipiperidin-1-yl]-N,N-dimethylbenzamide]"
6.21,65%,8.10,138%,,"CN(C)C(=O)c1ccc(N2CCC(C3CCN(S(=O)(=O)c4ccccc4C(F)(F)F)CC3)CC2)cc1Cl [Example A-101, 2-chloro-N,N-dimethyl-4-(1′-{[2-(trifluoromethyl)phenyl]sulfonyl}-4,4′-bipiperidin-1-yl)benzamide]"
6.21,31%,7.28,86%,,"CN(C)C(=O)c1ccc(N2CCC(C3CCN(C(=O)C4(c5ccc(Cl)cc5Cl)CCC4)CC3)CC2)cc1Cl [Example A-77, 2-chloro-4-(1′-{[1-(2,4-dichlorophenyl)cyclobutyl]carbonyl}-4,4′-bipiperidin-1-yl)-N,N-dimethylbenzamide]"
5.81,74%,7.70,119%,,"CN(C)C(=O)c1ccc(N2CCC(C3CCN(C(=O)OC(C)(C)C)CC3)CC2)nc1Cl [Example B-1, tert-butyl 1′-[6-chloro-5-(dimethylcarbamoyl)pyridin-2-yl]-4,4′-bipiperidine-1-carboxylate]"
5.87,17%,7.05,91%,,"CN(C)C(=O)c1ccc(N2CCC(C3CCN(C(=O)[C@](O)(c4ccccc4)C(F)(F)C(F)(F)F)CC3)CC2)nc1Cl (single isomer, unassigned) [Example B-16]"
,28%,6.35,83%,NO IP,"O=C(c1ccc(N2CCC(C3CCN(C(=O)[C@](O)(c4ccccc4)C(F)(F)F)CC3)CC2)cc1Cl)N1CC(F)(F)C1 [Example E-34, (2R)-3-(1′-{3-chloro-4-[(3,3-difluoroazetidin-1-yl)carbonyl]phenyl}-4,4′-bipiperidin-1-yl)-1,1,1-trifluoro-3-oxo-2-phenylpropan-2-ol]"
5.32,58%,6.51,112%,,"C=CCC(O)(C(=O)N1CCC(C2CCN(c3ccc(C(=O)N(C)C)c(Cl)c3)CC2)CC1)C(F)(F)F (centres unmarked) [Example A-57, 2-chloro-4-{1′-[2-hydroxy-2-(trifluoromethyl)pent-4-enoyl]-4,4′-bipiperidin-1-yl}-N,N-dimethylbenzamide]"
5.84,55%,7.14,127%,,"CC(C)CC(O)(C(=O)N1CCC(C2CCN(c3ccc(C(=O)N(C)C)c(Cl)n3)CC2)CC1)C(F)(F)F (centres unmarked) [Example B-7, 2-chloro-6-{1′-[2-hydroxy-4-methyl-2-(trifluoromethyl)pentanoyl]-4,4′-bipiperidin-1-yl}-N,N-dimethylpyridine-3-carboxamide]"
5.30,33%,6.49,92%,,"CN(C)C(=O)c1ccc(N2CCC(C3CCN(C(=O)C(c4ccccc4)C(F)(F)F)CC3)CC2)cc1Cl (centres unmarked) [Example A-98, 2-chloro-N,N-dimethyl-4-[1′-(3,3,3-trifluoro-2-phenylpropanoyl)-4,4′-bipiperidin-1-yl]benzamide]"
5.75,25%,6.90,72%,,"O=C(c1ccc(N2CCC(C3CCN(C(=O)[C@](O)(c4ccccc4)C(F)(F)F)CC3)CC2)cc1Cl)N1CCC[C@@H]1CO [Example E-23, (2R)-3-[1′-(3-chloro-4-{[(2R)-2-(hydroxymethyl)pyrrolidin-1-yl]carbonyl}phenyl)-4,4′-bipiperidin-1-yl]-1,1,1-trifluoro-3-oxo-2-phenylpropan-2-ol]"
5.99,61%,7.52,113%,,"CN(C)C(=O)c1ccc(N2CCC(C3CCN(C(=O)C4(c5ccccc5F)CCC4)CC3)CC2)cc1Cl [Example A-73, 2-chloro-4-(1′-{[1-(2-fluorophenyl)cyclobutyl]carbonyl}-4,4′-bipiperidin-1-yl)-N,N-dimethylbenzamide]"
6.66,59%,8.15,86%,,"CN(C)C(=O)c1ccc(N2CCC(C3CCN(C(=O)C(O)(C(F)(F)F)C(F)(F)F)CC3)CC2)cc1Cl [Example A-35, 2-chloro-N,N-dimethyl-4-{1′-[3,3,3-trifluoro-2-hydroxy-2-(trifluoromethyl)propanoyl]-4,4′-bipiperidin-1-yl}benzamide]"
6.28,74%,8.10,131%,,"CN(C)C(=O)c1ccc(N2CCC(C3CCN(C(=O)OCc4c(Cl)cccc4Cl)CC3)CC2)cc1Cl [Example A-108, 2,6-dichlorobenzyl 1′-[3-chloro-4-(dimethylcarbamoyl)phenyl]-4,4′-bipiperidine-1-carboxylate]"
6.38,20%,6.74,82%,,"CS(=O)(=O)c1ccc(N2CCC(C3CCN(C(=O)[C@](O)(c4ccccc4)C(F)(F)F)CC3)CC2)cc1Cl [Example D-7, (2R)-3-{1′-[3-chloro-4-(methylsulfonyl)phenyl]-4,4′-bipiperidin-1-yl}-1,1,1-trifluoro-3-oxo-2-phenylpropan-2-ol]"
5.45,54%,6.95,109%,,"CN(C)C(=O)c1ccc(N2CCC(C3CCN(C(=O)c4c(F)cccc4C(F)(F)F)CC3)CC2)cc1Cl [Example A-25, 2-chloro-4-(1′-{[2-fluoro-6-(trifluoromethyl)phenyl]carbonyl}-4,4′-bipiperidin-1-yl)-N,N-dimethylbenzamide]"
5.24,48%,6.85,121%,,"Cc1ccccc1S(=O)(=O)N1CCC(C2CCN(c3ccc(C(=O)N(C)C)c(Cl)c3)CC2)CC1 [Example A-100, 2-chloro-N,N-dimethyl-4-{1′-[(2-methylphenyl)sulfonyl]-4,4′-bipiperidin-1-yl}benzamide]"
6.21,40%,7.27,128%,,"CN(C)C(=O)c1ccc(N2CCC(C3CCN(C(=O)[C@@](O)(c4ccccc4)C(F)(F)C(F)(F)F)CC3)CC2)cc1Cl (single isomer, unassigned) [Example A-43]"
6.24,53%,7.96,108%,,"CN(C)C(=O)c1ccc(N2CCC(C3CCN(C(=O)C4(c5ccccc5F)CCCC4)CC3)CC2)cc1Cl [Example A-45, 2-chloro-4-(1′-{[1-(2-fluorophenyl)cyclopentyl]carbonyl}-4,4′-bipiperidin-1-yl)-N,N-dimethylbenzamide]"
5.67,62%,7.14,119%,,"CN(C)C(=O)c1ccc(N2CCC(C3CCN(C(=O)C(O)(C(F)(F)F)C4(C)CC4)CC3)CC2)cc1Cl (centres unmarked) [Example A-30, 2-chloro-N,N-dimethyl-4-{1′-[3,3,3-trifluoro-2-hydroxy-2-(1-methylcyclopropyl)propanoyl]-4,4′-bipiperidin-1-yl}benzamide]"
